From patent publication US6552080B1, “Fungicidal compounds having a fluorovinyl-or fluoropropenyl-oxyphenyloxime moiety and process for the preparation thereof” (Korea Research Institute of Chemical Technology, priority 1999, dated 2003)
Where two headings read alike, the source gives them in different places.

Key:
[1] = system: Phytophthora infestans; assay type: in vivo; settings: Tomato Late Blight
[2] = system: Puccinia recondita; test: Fungicidal activity against Wheat Leaf Rust (WLR) disease; assay type: in vivo; settings: Wheat Leaf Rust
[3] = system: Rhizoctonia solani AG-1; test: Fungicidal activity against Rice Sheath Blight (RSB) disease; settings: Rice Sheath Blight
[4] = system: Pyricularia oryzae Carvara KA301; assay type: in vivo; settings: Rice Blast
[5] = system: Botrytis cinerae; test: Fungicidal activity against Cucumber Gray Mold Rot (CGM) disease; assay type: in vivo; settings: Cucumber Gray Mold Rot
[6] = system: Erysiphae graminis; test: Fungicidal activity against Barley Powdery Mildew (BPM) disease; assay type: in vivo; settings: Barley Powdery Mildew

SMILES | TLB (Fungicidal Activities, C.V.) ([1]; concentration 2 ppm) | TLB (Fungicidal Activities, C.V.) ([1]; concentration 50 ppm) | WLR (Fungicidal Activities, C.V.) ([2]; concentration 2 ppm) | WLR (Fungicidal Activities, C.V.) ([2]; concentration 50 ppm) | RSB (Fungicidal Activities, C.V.) ([3]; concentration 2 ppm) | RSB (Fungicidal Activities, C.V.) ([3]; concentration 50 ppm) | RCV (Fungicidal Activities, C.V.) ([4]; concentration 2 ppm) | RCV (Fungicidal Activities, C.V.) ([4]; concentration 50 ppm) | CGM (Fungicidal Activities, C.V.) ([5]; concentration 50 ppm) | BPM (Fungicidal Activities, C.V.) ([6]; concentration 2 ppm) | BPM (Fungicidal Activities, C.V.) ([6]; concentration 50 ppm) | TLB (Fungicidal Activities, C.V.) ([1]; concentration 10 ppm) | WLR (Fungicidal Activities, C.V.) ([2]; concentration 10 ppm) | RSB (Fungicidal Activities, C.V.) ([3]; concentration 10 ppm) | RCV (Fungicidal Activities, C.V.) ([4]; concentration 10 ppm) | CGM (Fungicidal Activities, C.V.) ([5]; concentration 2 ppm) | CGM (Fungicidal Activities, C.V.) ([5]; concentration 10 ppm) | BPM (Fungicidal Activities, C.V.) ([6]; concentration 10 ppm)
CCc1ccc(C=C(F)Oc2cccc(C(C)=NOCc3ccccc3C(=NOC)C(=O)OC)c2)cc1 [Compound 69] | 25% | 60% | 97% | 100% | 30% | 100% | 100% | 100% | 25% | 99% | 100% | – | – | – | – | – | – | –
CCCCc1ccc(C=C(F)Oc2cccc(C(C)=NOCc3ccccc3C(=NOC)C(=O)OC)c2)cc1 [Compound 70] | 12% | 0% | 93% | 97% | 20% | 85% | 99% | 100% | 50% | 83% | 100% | – | – | – | – | – | – | –
CON=C(C(=O)OC)c1ccccc1CON=C(C)c1cccc(OC(F)=Cc2cccc(OC)c2)c1 [Compound 71] | 25% | 50% | 98% | 100% | 35% | 100% | 100% | 100% | 25% | 100% | 100% | – | – | – | – | – | – | –
CON=C(C(=O)OC)c1ccccc1CON=C(C)c1cccc(OC(F)=Cc2ccc(OC)cc2)c1 [Compound 72] | 0% | 66% | 98% | 100% | 25% | 65% | 100% | 98% | 0% | 100% | 100% | – | – | – | – | – | – | –
CCOc1ccc(C=C(F)Oc2cccc(C(C)=NOCc3ccccc3C(=NOC)C(=O)OC)c2)cc1 [Compound 73] | 0% | 60% | 98% | 100% | 25% | 100% | 100% | 95% | 0% | 100% | 100% | – | – | – | – | – | – | –
CON=C(C(=O)OC)c1ccccc1CON=C(C)c1cccc(OC(F)=Cc2ccc(F)cc2)c1 [Compound 74] | 12% | 56% | 99% | 100% | 25% | 100% | 100% | 100% | 72% | 100% | 100% | – | – | – | – | – | – | –
CON=C(C(=O)OC)c1ccccc1CON=C(C)c1cccc(OC(F)=Cc2cccc(Cl)c2)c1 [Compound 75] | 0% | 66% | 98% | 100% | 25% | 100% | 100% | 100% | 0% | 100% | 100% | – | – | – | – | – | – | –
CON=C(C(=O)OC)c1ccccc1CON=C(C)c1cccc(OC(F)=Cc2ccc(Cl)cc2)c1 [Compound 76] | 0% | 0% | 100% | 100% | 35% | 100% | 100% | 100% | 62% | 100% | 100% | – | – | – | – | – | – | –
CNC(=O)/C(=N/OC)c1ccccc1CON=C(C)c1cccc(OC(F)=Cc2ccccc2)c1 [Compound 77] | 50% | 80% | 100% | 100% | 40% | 100% | 100% | 100% | 85% | 100% | 100% | 88% | 100% | 57% | 100% | 21% | 36% | 100%
CNC(=O)C(=NOC)c1ccccc1CON=C(C)c1cccc(OC(F)=Cc2cccc(C)c2)c1 [Compound 78] | 50% | 94% | 100% | 100% | 45% | 90% | 100% | 100% | 82% | 100% | 100% | – | – | – | – | – | – | –
CCc1ccc(C=C(F)Oc2cccc(C(C)=NOCc3ccccc3C(=NOC)C(=O)NC)c2)cc1 [Compound 79] | 43% | 82% | 98% | 100% | 35% | 65% | 99% | 100% | 80% | 100% | 100% | – | – | – | – | – | – | –
CNC(=O)C(=NOC)c1ccccc1CON=C(C)c1cccc(OC(F)=Cc2cccc(OC)c2)c1 [Compound 80] | 12% | 72% | 96% | 100% | 45% | 100% | 100% | 100% | 77% | 100% | 100% | – | – | – | – | – | – | –
CCOc1ccc(C=C(F)Oc2cccc(C(C)=NOCc3ccccc3C(=NOC)C(=O)NC)c2)cc1 [Compound 81] | 12% | 64% | 99% | 100% | 30% | 100% | 100% | 100% | 83% | 100% | 100% | – | – | – | – | – | – | –
